Assay results as given in ChEMBL document CHEMBL1201862, “PubChem BioAssay data set” (2004).
The source made the active and inactive calls.

What was measured:
[1] = biological target: T1, Rac GTPase-activating protein 1 (Homo sapiens, UniProt Q9H0H5); experiment: blockers of MgcRacGAP-driven Rac1 GTP hydrolysis – biochemical, ADP Hunter fluorescence, primary and confirmatory, confirmation (AID 624330); format: functional
T1 sequence (Q9H0H5 whole entry): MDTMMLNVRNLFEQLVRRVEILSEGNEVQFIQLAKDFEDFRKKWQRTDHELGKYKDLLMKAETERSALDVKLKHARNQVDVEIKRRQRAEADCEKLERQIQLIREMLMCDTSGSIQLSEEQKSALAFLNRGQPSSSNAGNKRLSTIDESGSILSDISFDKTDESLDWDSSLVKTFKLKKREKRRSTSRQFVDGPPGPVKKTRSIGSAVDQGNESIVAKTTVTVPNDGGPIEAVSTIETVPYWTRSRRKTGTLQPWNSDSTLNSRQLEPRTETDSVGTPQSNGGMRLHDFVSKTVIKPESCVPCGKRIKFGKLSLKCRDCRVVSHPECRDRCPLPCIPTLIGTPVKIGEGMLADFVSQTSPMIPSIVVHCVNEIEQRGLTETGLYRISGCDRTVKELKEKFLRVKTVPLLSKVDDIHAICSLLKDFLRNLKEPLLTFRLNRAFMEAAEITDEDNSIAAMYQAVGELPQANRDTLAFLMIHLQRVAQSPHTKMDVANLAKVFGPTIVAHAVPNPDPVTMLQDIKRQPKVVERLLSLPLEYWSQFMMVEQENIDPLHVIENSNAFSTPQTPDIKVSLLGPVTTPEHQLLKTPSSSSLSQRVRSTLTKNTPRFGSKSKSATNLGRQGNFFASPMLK

Cytochrome P450 1A2 = biological target: T2, Cytochrome P450 1A2 (Homo sapiens, UniProt P05177);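 also: PubChem cytochrome P450 panel assay, CYP1A2 panel member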
T2 sequence (P05177 whole entry): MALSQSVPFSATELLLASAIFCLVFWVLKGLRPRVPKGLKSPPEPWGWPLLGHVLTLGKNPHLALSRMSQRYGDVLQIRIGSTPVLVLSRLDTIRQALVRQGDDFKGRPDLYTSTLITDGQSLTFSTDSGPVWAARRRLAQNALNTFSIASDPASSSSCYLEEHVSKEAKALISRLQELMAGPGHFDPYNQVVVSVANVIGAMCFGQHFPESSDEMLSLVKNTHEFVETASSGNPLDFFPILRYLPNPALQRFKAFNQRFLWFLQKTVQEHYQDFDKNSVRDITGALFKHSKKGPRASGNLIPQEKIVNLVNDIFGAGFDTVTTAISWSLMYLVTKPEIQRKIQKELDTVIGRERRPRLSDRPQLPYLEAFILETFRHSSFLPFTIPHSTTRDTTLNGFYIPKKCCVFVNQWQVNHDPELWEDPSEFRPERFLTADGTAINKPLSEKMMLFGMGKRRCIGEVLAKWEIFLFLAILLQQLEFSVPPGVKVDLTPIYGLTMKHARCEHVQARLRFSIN

[2] = NIH-3T3 fibroblast cytotoxicity, dose response, cytotoxicity control, cell-based, fluorescence, Alamar Blue, secondary assay (AID 2327); format: functional;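 also: NIH-3T3 mouse fibroblasts cultured with fluconazole at 8 µg/mL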
[3] = fluconazole-exposed Candida albicans growth modulators – fluorescence, retest, confirmation (AID 2467); format: functional, cell-based
cells = format: functional
[4] = test system: Streptococcus sp. 'group A'; experiment: Streptococcus pyogenes SK(-)GAS viability under kanamycin – luminescence, BacTiterGlo, confirmation, counter-screen for streptokinase expression inhibitor project, dose response (AID 1900); format: functional, organism-based
Streptococcus = experiment: GAS UMAA2166 growth inhibition – luminescence, BacTiterGlo, counter-screen for streptokinase expression inhibitor project, dose response (AID 1915); format: functional, organism-based;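 also: potency for reduction of bacterial viability or growth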
Streptokinase A = biological target: T3, Streptokinase A (Streptococcus pyogenes serotype M1, UniProt P10520); experiment: viability-normalized secreted streptokinase activity reduction – plasminogen activation absorbance, OD405, dose response (AID 1914); format: functional, Streptococcus pyogenes M1 GAS;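 also: secreted streptokinase activity via plasminogen activation per viability signal from cell pellet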
T3 sequence (P10520 whole entry): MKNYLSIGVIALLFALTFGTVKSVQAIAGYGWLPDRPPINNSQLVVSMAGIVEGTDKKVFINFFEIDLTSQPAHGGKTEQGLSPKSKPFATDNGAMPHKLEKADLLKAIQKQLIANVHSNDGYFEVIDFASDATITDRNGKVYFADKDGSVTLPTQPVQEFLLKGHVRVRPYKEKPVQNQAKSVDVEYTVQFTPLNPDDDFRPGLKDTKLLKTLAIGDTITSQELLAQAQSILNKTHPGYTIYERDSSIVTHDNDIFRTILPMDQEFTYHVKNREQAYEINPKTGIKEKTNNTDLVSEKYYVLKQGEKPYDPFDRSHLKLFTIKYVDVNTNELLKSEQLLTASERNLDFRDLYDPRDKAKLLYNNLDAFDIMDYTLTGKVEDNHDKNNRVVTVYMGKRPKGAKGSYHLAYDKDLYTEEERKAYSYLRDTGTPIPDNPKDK

H4 = experiment: Luminescence Cell-Based Dose Response HTS to Identify Activators of 5'UTR Stem-Loop Driven Prion Protein mRNA Translation in H4 Neuroglioblastoma Cells. [Related pubchem assays: 1829 (Project Summary), 1814 (Primary HTS)]; format: functional; settings: Homo sapiens
[5] = Luminescence Cell-Based Dose Response HTS to Identify Activators of Luciferase Translation or Activity in H4 […] Cells. [Related pubchem assays: 1829 (Project Summary), 1814 (Primary HTS)]; format: functional
Cytochrome P450 2D6 = Cytochrome P450 2D6 (Homo sapiens, UniProt P10635);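 also: CYP2D6 member of a cytochrome P450 panel assay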
[6] = Luminescence Cell-Based Dose Response HTS to Identify Inhibitors of 5'UTR Stem-Loop Driven Prion Protein mRNA Translation in H4 Neuroglioblastoma Cells. [Related pubchem assays: 1827 (Project Summary), 1813 (Primary HTS)]; format: functional
[7] = luciferase reporter signal suppression in cells – H4 neuroglioma cells, luminescence, dose response (AID 1990); format: functional, cell-based
[8] = alpha-synuclein stem-loop luciferase translation blockers – H4 neuroglioma cells, luminescence, confirmation (AID 1988); format: functional, cell-based
[9] = NIH3T3 cell viability loss – ATP luminescence, mouse fibroblasts, counter-screen, dose response (AID 2010); format: functional, cell-based;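 also: cells exposed to compound for about 90 hours before reading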
[10] = Trypanosoma cruzi growth suppression in host cells – NIH3T3 host cells, beta-gal luminescence, confirmation (AID 2044); format: functional, cell-based;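 also: intracellular parasites grown in NIH/3T3 mouse fibroblasts as host cells; luminescent beta-galactosidase reporter signal from transgenic T. cruzi replicating inside host cells; inhibitors lower the luminescence signal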
[11] = Luminescence Cell-Based Dose Confirmation HTS to Identify Inhibitors of Platelet Dense Granule Release. [Related pubchem assays: 1663 (Primary HTS), 1678 (Summary of Project)]; format: functional
[12] = biological target: T4, Heat shock factor protein 1 (Mus musculus, UniProt P38532); experiment: enhancement of HSF1-driven luciferase signal – cell-based, NIH3T3, luminescence, dose retest, confirmation (AID 435004); format: functional;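 also: stress induced by proteasome inhibitor MG132 added 30 min after compound; luciferase reporter driven by HSF1 response element in NIH3T3 cells; actives raise luminescence as potentiators of the MG132 stress response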
T4 sequence (P38532 whole entry): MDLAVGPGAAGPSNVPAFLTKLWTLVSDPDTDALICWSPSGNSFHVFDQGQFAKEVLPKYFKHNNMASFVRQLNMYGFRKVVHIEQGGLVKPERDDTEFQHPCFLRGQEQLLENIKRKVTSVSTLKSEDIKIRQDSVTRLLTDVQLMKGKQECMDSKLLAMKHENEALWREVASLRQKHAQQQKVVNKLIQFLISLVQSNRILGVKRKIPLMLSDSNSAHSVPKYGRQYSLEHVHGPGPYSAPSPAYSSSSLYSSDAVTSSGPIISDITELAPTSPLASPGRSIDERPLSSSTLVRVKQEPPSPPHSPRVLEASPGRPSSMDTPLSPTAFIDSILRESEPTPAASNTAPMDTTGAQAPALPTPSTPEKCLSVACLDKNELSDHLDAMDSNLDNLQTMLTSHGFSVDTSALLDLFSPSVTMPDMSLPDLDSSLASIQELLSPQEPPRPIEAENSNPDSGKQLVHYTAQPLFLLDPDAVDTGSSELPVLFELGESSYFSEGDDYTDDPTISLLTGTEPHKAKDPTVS

[13] = biological target: Luciferin 4-monooxygenase (Photinus pyralis, UniProt P08659); experiment: inhibition of purified Photinus pyralis luciferase – biochemical, luminescence, dose response (AID 1891)
Cytochrome P450 2C19 = Cytochrome P450 2C19 (Homo sapiens, UniProt P33261); experiment: Cytochrome panel assay with activity outcomes. Panel member name: p450-cyp2c19 Compounds with AC50 equal or less than 10 uM are considered active; format: functional; settings: read-out: AC50
Cytochrome P450 3A4 = Cytochrome P450 3A4 (Homo sapiens, UniProt P08684);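 also: CYP3A4 tested as one member of a cytochrome P450 panel screen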
Sequence of Cytochrome P450 3A4 (P08684 whole entry): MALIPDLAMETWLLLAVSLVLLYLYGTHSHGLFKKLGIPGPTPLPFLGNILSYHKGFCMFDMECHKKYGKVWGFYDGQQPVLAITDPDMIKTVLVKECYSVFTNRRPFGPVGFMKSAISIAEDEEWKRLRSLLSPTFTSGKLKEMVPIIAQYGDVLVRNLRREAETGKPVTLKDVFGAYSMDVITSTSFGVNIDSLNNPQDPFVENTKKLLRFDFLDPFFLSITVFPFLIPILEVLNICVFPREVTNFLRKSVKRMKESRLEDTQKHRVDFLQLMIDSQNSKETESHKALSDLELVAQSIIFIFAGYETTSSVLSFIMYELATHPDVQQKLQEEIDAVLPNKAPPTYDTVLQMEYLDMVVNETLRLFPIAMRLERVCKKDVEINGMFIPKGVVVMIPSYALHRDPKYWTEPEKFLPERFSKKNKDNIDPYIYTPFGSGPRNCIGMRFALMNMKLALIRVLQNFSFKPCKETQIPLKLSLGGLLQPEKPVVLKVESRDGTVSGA

Sequence of Cytochrome P450 2D6 (P10635 whole entry): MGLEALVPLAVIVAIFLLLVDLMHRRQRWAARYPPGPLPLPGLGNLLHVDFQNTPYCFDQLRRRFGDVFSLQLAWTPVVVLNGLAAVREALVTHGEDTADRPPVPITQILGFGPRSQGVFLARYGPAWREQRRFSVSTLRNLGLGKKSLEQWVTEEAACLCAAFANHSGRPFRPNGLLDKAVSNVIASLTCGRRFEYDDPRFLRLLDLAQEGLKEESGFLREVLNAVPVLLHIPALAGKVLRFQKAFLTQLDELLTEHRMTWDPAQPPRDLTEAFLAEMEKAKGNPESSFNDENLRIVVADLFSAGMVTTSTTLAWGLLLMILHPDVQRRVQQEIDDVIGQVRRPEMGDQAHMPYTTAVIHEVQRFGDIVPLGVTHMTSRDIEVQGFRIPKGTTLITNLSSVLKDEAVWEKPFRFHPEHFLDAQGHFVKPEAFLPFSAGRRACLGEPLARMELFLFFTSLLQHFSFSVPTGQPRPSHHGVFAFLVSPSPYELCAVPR
Sequence of Cytochrome P450 2C19 (P33261 whole entry): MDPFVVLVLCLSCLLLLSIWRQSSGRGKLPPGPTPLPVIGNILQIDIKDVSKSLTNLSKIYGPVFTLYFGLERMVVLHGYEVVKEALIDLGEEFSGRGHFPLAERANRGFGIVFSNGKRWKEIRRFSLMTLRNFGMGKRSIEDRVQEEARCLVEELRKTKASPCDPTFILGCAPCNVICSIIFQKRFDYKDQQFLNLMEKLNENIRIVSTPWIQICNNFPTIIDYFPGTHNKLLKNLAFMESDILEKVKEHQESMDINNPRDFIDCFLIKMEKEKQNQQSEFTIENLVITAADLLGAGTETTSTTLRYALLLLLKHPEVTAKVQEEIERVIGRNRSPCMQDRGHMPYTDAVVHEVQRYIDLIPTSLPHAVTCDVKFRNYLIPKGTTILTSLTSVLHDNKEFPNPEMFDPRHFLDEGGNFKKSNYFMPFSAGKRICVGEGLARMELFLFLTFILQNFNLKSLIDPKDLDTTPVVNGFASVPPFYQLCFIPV
Sequence of Luciferin 4-monooxygenase (P08659 whole entry): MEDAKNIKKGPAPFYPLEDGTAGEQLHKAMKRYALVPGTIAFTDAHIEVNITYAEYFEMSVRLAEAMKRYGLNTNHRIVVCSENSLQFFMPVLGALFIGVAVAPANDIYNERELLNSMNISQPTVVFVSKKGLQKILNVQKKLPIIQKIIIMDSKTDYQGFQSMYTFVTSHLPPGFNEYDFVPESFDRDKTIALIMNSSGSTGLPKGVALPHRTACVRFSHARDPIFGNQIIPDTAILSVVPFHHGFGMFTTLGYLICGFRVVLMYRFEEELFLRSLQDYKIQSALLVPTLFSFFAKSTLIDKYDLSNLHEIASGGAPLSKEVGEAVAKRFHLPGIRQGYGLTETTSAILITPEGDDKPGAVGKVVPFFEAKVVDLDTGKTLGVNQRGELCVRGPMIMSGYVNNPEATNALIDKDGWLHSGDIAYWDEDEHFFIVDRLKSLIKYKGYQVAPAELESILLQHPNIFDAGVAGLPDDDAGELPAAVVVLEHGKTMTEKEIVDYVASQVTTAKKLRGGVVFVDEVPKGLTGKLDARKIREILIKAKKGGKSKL

## COc1ccc(NCc2cc(O)nc3ccccc23)cc1
[1]
  IC50: 50.5 µM (active)

## CC(=O)Nc1cccc2cc(O)ccc12
[1]
  IC50: 36.8 µM (active)

## CS(=O)(=O)N1CCC2(CCCN(C(=O)Nc3ccccc3)C2)CC1
Cytochrome P450 1A2
  AC50: 15.8 µM (inconclusive)

## COc1cccc(/C=N/NC(=O)c2cc(-c3cccn3C)[nH]n2)c1O
[2]
  EC50: 23.5 µM (inconclusive)
[3]
  EC50: 2.95 µM (active)

## O=C(OCC(=O)N1CCc2ccccc21)c1ccc([N+](=O)[O-])cc1
cells
  IC50: 7.65 µM (active)

## C=C(C)C1Cc2c(C)nn(-c3nc(C)cc(C)n3)c2C1 (configuration not stated)
cells
  IC50: 3.19 µM (active)
[4]
  EC50: 25 µM (active)
Streptococcus
  EC50: > 150 µM (not active)
Streptokinase A
  EC50: > 150 µM (not active)

## COc1ccc(NCC(O)Cn2c(C)c(C)c3ccccc32)cc1 (configuration not stated)
[1]
  IC50: 70.7 µM (active)

## CC(=O)Oc1ccc(C)cc1-n1nc2ccccc2n1
H4
  EC50: 2.63 µM (active)
[5]
  EC50: 0.445 µM (active)

## Cc1cccc(NC(=O)N(Cc2nc(O)c3ccccc3n2)C2CCCC2)c1
Cytochrome P450 2D6
  AC50: 39.8 µM (inconclusive)

## CN1CCc2c1nc1ccccc1c2NC(=O)CN1CCCC1
[1]
  IC50: 117 µM (active)

## CC1COc2ccccc2N1S(=O)(=O)c1ccccc1 (configuration not stated)
[2]
  EC50: > 150 µM (inconclusive)

## Cc1nc(Cl)cc(N/N=C/c2ccc(O)cc2O)n1
[1]
  IC50: 16.6 µM (active)

## CC(C)CN(Cc1c(O)ccc2ccccc12)CC(C)C
[1]
  IC50: 47.5 µM (active)

## COc1cccc(NC(=O)c2cc3ccccc3oc2=O)c1
cells
  IC50: 34.4 µM (active)

## CCCCNCC#CCOc1cc(C)ccc1C(C)C
[1]
  IC50: 196 µM (active)

## Sc1nnc(C2CCCCC2)n1/N=C/c1cccc(Cl)c1Cl
[6]
  EC50: > 120 µM (not active)
[4]
  EC50: 4.7 µM (active)
[7]
  EC50: 15.2 µM (active)
[8]
  EC50: 15.1 µM (active)
Streptococcus
  EC50: 7.5 µM (active)
Streptokinase A
  EC50: > 150 µM (not active)

## Clc1cccc(N/N=C/c2ccc(N3CCOCC3)cc2)c1
Cytochrome P450 2D6
  AC50: 7.08 µM (inconclusive)
[9]
  EC50: > 60 µM (not active)
[10]
  EC50: 2.74 µM (active)

## Cc1ccc(S(=O)(=O)C(C#N)c2nc3ccccc3nc2N2CCN(C)CC2)cc1C (configuration not stated)
[2]
  EC50: > 150 µM (inactive)
[3]
  EC50: > 38 µM (not active)

## COCCOC(=O)c1c(C)oc2ccc(OC(=O)c3ccco3)cc12
cells
  IC50: > 50 µM (active)

## CN1CC[C@@]2(CCCN(C(=O)c3csnn3)C2)C1
Cytochrome P450 2D6
  AC50: 39.8 µM (inconclusive)

## Cc1sc(NC(=O)c2ccc(Br)s2)c(C(N)=O)c1C
[2]
  EC50: > 150 µM (inactive)
[3]
  EC50: > 38 µM (not active)

## COc1ccccc1NC(=O)N(Cc1ccco1)Cc1cc2ccc(C)c(C)c2nc1O
[6]
  EC50: 27.6 µM (active)
[11]
  EC50: > 112 µM (not active)
[12]
  EC50: > 260 µM (inactive)
[7]
  EC50: > 60 µM (not active)
[8]
  EC50: 11 µM (active)
[13]
  EC50: > 112 µM (not active)

## CCN(CC)c1ccc(NC(=O)c2ccc(S(=O)(=O)N3CCOCC3)cc2)cc1
[1]
  IC50: 71.9 µM (active)

## O=C(Nc1nnc(-c2ccc(Cl)cc2)o1)C1=COCCO1
cells
  IC50: 4.83 µM (active)

## Cn1ccnc1SCC(=O)Nc1sccc1C#N
Cytochrome P450 2C19
  AC50: 7.08 µM (inconclusive)
Cytochrome P450 2D6
  AC50: 25.1 µM (inconclusive)

## COc1ccccc1-c1ccc2ncnc(NCCN3CCOCC3)c2c1
Cytochrome P450 2D6
  AC50: 39.8 µM (inconclusive)

## N#C/C(=C/c1ccc(N2CCCC2)c([N+](=O)[O-])c1)c1nc2ccccc2[nH]1
Cytochrome P450 1A2
  AC50: 3.55 µM (inconclusive)

## O=C1C2CCCN2C(c2ccccc2)N1c1ccccn1 (configuration not stated)
[2]
  EC50: > 160 µM (inactive)
[3]
  EC50: > 38 µM (not active)

## Clc1ccccc1-c1nc(/C=N/N2CCOCC2)c2ccccn12
[1]
  IC50: 33.6 µM (active)

## CS(=O)(=O)Nc1cccc(-c2ccc3ncnc(Nc4ccccc4)c3c2)c1
Cytochrome P450 2D6
  AC50: 25.1 µM (inconclusive)

## O=C(CNS(=O)(=O)c1ccc(Br)s1)N1CCC2(CC1)OCCO2
Cytochrome P450 1A2
  AC50: 15.8 µM (inconclusive)
Cytochrome P450 3A4
  AC50: 25.1 µM (inconclusive)

## COC(=O)c1cc2n(n1)CCN(Cc1ccccc1F)C2=O
Cytochrome P450 2C19
  AC50: 5.01 µM (inconclusive)
Cytochrome P450 1A2
  AC50: 15.8 µM (inconclusive)

## O=c1c(-c2cccs2)nc2cnc(Nc3ccccc3)nc2n1C[C@H]1CCCO1
Cytochrome P450 1A2
  AC50: 2.51 µM (inconclusive)
Cytochrome P450 3A4
  AC50: 10 µM (inconclusive)
